Reference: patent US20210255193A1, “LYSINE REACTIVE PROBES AND USES THEREOF” (The Scripps Research Institute, priority 2017, published 2021)

Key:
Assay in all cases: competitive isoTOP-ABPP
Assay type in all cases: binding
[1] = target: T1, RINT1 RAD50-interacting protein 1 (Homo sapiens, UniProt Q6NUQ1); conditions: 50 uM, in vitro; for isoTOP-ABPP ratio (R) at liganded lysine Q6NUQ1_K771: sol, 231; for R value (DMSO/fragment) for probe 1 labeling: Q6NUQ1_K771; for R value (DMSO/fragment) for probe 1 labeling / isoTOP-ABPP reactivity ratio at lysine Q6NUQ1_K771: 231 sol
T1 construct: isoTOP-ABPP experiments performed in cell lysates (in vitro); endogenous in cells; host or cells: soluble proteome of human cancer cell lines (MDA-MB-231; Ramos and Jurkat also prepared)
T1 sequence (Q6NUQ1 whole entry, the tested form may be a part): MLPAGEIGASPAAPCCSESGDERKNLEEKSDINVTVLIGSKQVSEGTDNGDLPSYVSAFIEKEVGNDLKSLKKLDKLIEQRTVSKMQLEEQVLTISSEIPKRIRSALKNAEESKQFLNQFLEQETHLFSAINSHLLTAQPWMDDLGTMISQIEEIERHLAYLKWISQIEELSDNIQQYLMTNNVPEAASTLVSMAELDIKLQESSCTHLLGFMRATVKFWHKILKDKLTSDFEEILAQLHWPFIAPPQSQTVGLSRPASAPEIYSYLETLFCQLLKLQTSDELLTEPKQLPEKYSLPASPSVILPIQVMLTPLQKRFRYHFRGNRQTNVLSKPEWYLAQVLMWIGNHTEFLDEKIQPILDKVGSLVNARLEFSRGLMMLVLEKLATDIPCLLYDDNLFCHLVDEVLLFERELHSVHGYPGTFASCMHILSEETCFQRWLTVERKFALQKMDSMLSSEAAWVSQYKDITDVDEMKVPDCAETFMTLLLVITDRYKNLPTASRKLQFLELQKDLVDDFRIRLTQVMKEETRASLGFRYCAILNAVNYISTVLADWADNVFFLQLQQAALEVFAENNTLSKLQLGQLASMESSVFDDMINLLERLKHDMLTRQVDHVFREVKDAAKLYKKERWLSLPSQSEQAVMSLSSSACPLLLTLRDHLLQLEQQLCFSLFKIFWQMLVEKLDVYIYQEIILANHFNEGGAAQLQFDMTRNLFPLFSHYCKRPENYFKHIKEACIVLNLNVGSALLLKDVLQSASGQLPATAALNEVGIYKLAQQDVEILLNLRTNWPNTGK
Outline: (§1)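 Cell lysate treated in vitro with fragments (50 μM activated esters, 100 μM guanidinylating agents) or DMSO, labelled 1 h at ambient temperature with 0.1 mM STP-alkyne, CuAAC-tagged with light/heavy TEV tags, analysed by MS. R = DMSO/compound MS1 peak-area ratio; lysines with R≥4 called liganded.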

[2] = target: T2, TRMT10C Mitochondrial ribonuclease P protein 1 (Homo sapiens, UniProt Q7L0Y3); conditions: 50 uM, in vitro; for isoTOP-ABPP ratio (R) at liganded lysine Q7L0Y3_K325: sol, 231; for R value (DMSO/fragment) for probe 1 labeling: Q7L0Y3_K325; for R value (DMSO/fragment) for probe 1 labeling / isoTOP-ABPP reactivity ratio at lysine Q7L0Y3_K325: 231 sol
T2 construct: isoTOP-ABPP experiments performed in cell lysates (in vitro); endogenous in cells; host or cells: soluble proteome of human cancer cell lines (MDA-MB-231; Ramos and Jurkat also prepared)
T2 sequence (Q7L0Y3 40-403): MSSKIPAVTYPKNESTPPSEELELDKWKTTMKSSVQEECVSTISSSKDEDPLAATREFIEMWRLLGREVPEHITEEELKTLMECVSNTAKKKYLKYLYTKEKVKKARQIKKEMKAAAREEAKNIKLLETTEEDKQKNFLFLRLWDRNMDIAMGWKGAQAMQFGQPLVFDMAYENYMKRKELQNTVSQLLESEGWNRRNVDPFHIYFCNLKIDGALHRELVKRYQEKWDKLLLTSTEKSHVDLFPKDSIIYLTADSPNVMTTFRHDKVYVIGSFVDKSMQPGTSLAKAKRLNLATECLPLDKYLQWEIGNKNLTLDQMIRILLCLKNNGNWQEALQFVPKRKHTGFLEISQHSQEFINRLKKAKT
Outline: as §1

ADK Adenosine kinase = target: T3, ADK Adenosine kinase (Homo sapiens, UniProt P55263); parameters: key to isoTOP-ABPP reactivity ratio at lysine P55263_K88: R = MS1 peak area ratio, DMSO (heavy) / compound-treated (light); conditions: 50 uM, in vitro; for isoTOP-ABPP ratio (R) at liganded lysine P55263_K88: sol, 231; for R value (DMSO/fragment) for probe 1 labeling: P55263_K88; for R value (DMSO/fragment) for probe 1 labeling / isoTOP-ABPP reactivity ratio at lysine P55263_K88: 231 sol
T3 construct: isoTOP-ABPP experiments performed in cell lysates (in vitro); endogenous in cells; host or cells: soluble proteome of human cancer cell lines (MDA-MB-231, Ramos, Jurkat)
T3 sequence (P55263 whole entry, the tested form may be a part): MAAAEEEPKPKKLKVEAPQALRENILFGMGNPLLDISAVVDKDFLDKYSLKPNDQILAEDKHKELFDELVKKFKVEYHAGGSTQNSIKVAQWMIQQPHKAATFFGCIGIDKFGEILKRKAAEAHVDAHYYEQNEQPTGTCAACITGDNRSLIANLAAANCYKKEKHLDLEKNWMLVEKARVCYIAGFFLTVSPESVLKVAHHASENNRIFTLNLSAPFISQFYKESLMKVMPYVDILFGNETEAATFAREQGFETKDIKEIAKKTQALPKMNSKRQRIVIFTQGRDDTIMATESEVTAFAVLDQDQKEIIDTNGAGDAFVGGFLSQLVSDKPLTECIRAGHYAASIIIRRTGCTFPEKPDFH
Description: (§2) In vitro covalent fragment treatment for isoTOP-ABPP. All compounds were made up as solutions in DMSO (100×) and were used at a final concentration of 50 μM for activated esters and 100 μM for guanidinylating agents. For each profiling sample, 0.5 ml of lysate was treated with 5 μl of the 100× compound stock solution or 5 μl of DMSO. Samples were treated with activated esters for
(§3) STP-alkyne labeling and click chemistry. For concentration-dependent reactivity measurements by isoTOP-ABPP, 0.5 ml proteome aliquots were treated at ambient temperature with 1 mM STP-alkyne 1 (5 μl of 100 mM stock in DMSO) and 0.1 mM STP alkyne 1 (5 μl of 10 mM stock in DMSO), respectively. For competitive isoTOP-ABPP, after in vitro fragment treatment (detailed above), the samples were labeled for 1 h at ambient temperature with 0.1 mM STP-alkyne 1 (5 μl of 10 mM stock in DMSO). Samples were conjugated by copper-mediated azide-alkyne cycloaddition (CuAAC) to either the light (1 mM STP-alkyne or fragment treated) or heavy (0.1 mM STP-alkyne or DMSO treated) TEV tags (10 μl of 5 mM stocks in DMSO, final concentration=100 μM) using tris(2-carboxyethyl)phosphine hydrochloride
(§4) R value calculation and processing. The ratios of light and heavy MS1 peaks for each unique peptide were quantified with a CIMAGE software using default parameters (3 MS1 acquisitions per peak and signal to noise threshold set to 2.5). For reactivity measurements by isoTOP-ABPP, the R value was calculated from the ratio of MS1 peak areas, comparing the 1 mM STP alkyne sample (light TEV tag) with the 0.1 mM STP alkyne sample (heavy TEV tag). For competitive isoTOP-ABPP, the R value was calculated from the ratio of MS1 peak areas, comparing the DMSO treated sample (heavy TEV tag) with the compound treated sample (light TEV tag). […] Ratios for unique peptide entries are calculated for each experiment; overlapping peptides with the same modified lysine (for example, different charge states, MudPIT chromatographic steps or tryptic termini) are grouped together and the median ratio is reported as the final ratio (R). The peptide ratios reported by CIMAGE were further filtered to ensure the removal or correction of low-quality ratios in each individual data set. The quality filters applied were the following: removal of half tryptic peptides; for ratios with high standard deviations from the median (90% of the median or above) the lowest ratio was taken instead of the median; removal of peptides with R=20 and only a single MS2 event triggered during the elution of the parent ion; manual annotation of all the peptides with ratios of 20, removing any peptides with low quality elution profiles that remained after the previous curation steps (only done for competitive isoTOP-ABPP).
(§5) Cross-data processing for fragment screening. For compound treated samples, biological replicates of the same condition were averaged, if the standard deviation was below 60% of the mean; otherwise, for lysines with at least one R value <4 for a particular compound, the lowest value of the ratio set was taken. For lysines, where all R values for a particular compound were ≥4, the average was reported. For peptides containing several possible modified lysines, the lysine with the highest number of quantification events was used for analysis and the remaining, redundant peptides were reported as alternative modification sites. Peptides included in the aggregate dataset (those used for further bioinformatics and statistical analyses) were required to have been quantified in 2 experiments for competitive isoTOP-ABPP. Lysines were categorized as liganded, if they had at least one ratio R≥4 (hit fragments). For liganded lysines with R=20 for all liganding events, lysines were required to have been quantified with R=20 in two separate experiments and were further required to have been quantified with R<20 in one additional experiment.

[3] = target: T4, ECH1 Delta(3,5)-Delta(2,4)-dienoyl-CoA isomerase, mitochondrial (Homo sapiens, UniProt Q13011); parameters: key to isoTOP-ABPP reactivity ratio at lysine Q13011_K112: R = MS1 peak area ratio, DMSO (heavy) / compound-treated (light); capped at 20; conditions: 50 uM, in vitro; for isoTOP-ABPP ratio (R) at liganded lysine Q13011_K112: sol, 231; for R value (DMSO/fragment) for probe 1 labeling: Q13011_K112; for R value (DMSO/fragment) for probe 1 labeling / isoTOP-ABPP reactivity ratio at lysine Q13011_K112: 231 sol
T4 construct: isoTOP-ABPP experiments performed in cell lysates (in vitro); endogenous in cells; host or cells: soluble proteome of human cancer cell lines (MDA-MB-231, Ramos, Jurkat)
T4 sequence (Q13011 34-328): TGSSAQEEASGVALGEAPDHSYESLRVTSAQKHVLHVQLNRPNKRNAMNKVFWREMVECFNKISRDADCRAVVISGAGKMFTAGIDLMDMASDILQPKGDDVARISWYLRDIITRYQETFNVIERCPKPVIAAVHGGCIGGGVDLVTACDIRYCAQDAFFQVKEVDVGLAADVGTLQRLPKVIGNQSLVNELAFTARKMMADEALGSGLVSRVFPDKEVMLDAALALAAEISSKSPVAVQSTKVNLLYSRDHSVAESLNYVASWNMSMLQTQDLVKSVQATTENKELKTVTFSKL
Description: as §2, §3, §4, §5

[4] = target: T5, ISOC2 Isochorismatase domain-containing protein 2, mitochondrial (Homo sapiens, UniProt Q96AB3); parameters: key to isoTOP-ABPP reactivity ratio at lysine Q96AB3_K178: R = MS1 peak area ratio, DMSO (heavy) / compound-treated (light); capped at 20; conditions: 50 uM, in vitro; for isoTOP-ABPP ratio (R) at liganded lysine Q96AB3_K178: sol, 231; for R value (DMSO/fragment) for probe 1 labeling: Q96AB3_K178; for R value (DMSO/fragment) for probe 1 labeling / isoTOP-ABPP reactivity ratio at lysine Q96AB3_K178: 231 sol
T5 construct: isoTOP-ABPP experiments performed in cell lysates (in vitro); endogenous in cells; host or cells: soluble proteome of human cancer cell lines (MDA-MB-231; Ramos and Jurkat also prepared)
T5 sequence (Q96AB3 1-205): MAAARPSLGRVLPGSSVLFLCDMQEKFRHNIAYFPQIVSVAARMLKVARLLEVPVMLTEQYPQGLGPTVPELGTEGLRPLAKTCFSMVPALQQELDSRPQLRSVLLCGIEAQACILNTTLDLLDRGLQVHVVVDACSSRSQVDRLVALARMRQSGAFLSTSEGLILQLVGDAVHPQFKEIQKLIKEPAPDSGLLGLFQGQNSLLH
Description: as §2, §3, §4, §5

With `O=C(Oc1ccc([N+](=O)[O-])cc1[N+](=O)[O-])c1ccc2ccccc2n1` [fragment 35, 2,4-Dinitrophenyl quinoline-2-carboxylate] the “isoTOP-ABPP ratio (R) at liganded lysine Q6NUQ1_K771” value [1] was 1.7, the “isoTOP-ABPP ratio (R) at liganded lysine Q7L0Y3_K325” value [2] was 1.0 and the “isoTOP-ABPP ratio (R) at liganded lysine P55263_K88” value (ADK Adenosine kinase) was 0.6. For the same molecule, the “isoTOP-ABPP ratio (R) at liganded lysine Q13011_K112” value [3] was 1.0 and the “isoTOP-ABPP ratio (R) at liganded lysine Q96AB3_K178” value [4] was 1.3.

`O=C(Oc1c(F)c(F)c(F)c(F)c1F)c1cc(C(F)(F)F)cc(C(F)(F)F)c1` [fragment 21, Pentafluorophenyl 3,5-bis(trifluoromethyl)benzoate] was tested, and the “R value (DMSO/fragment) for probe 1 labeling” value (“R value (DMSO/fragment)” below) [1] was 2.2, the “R value (DMSO/fragment)” value [2] was 0.9 and the “R value (DMSO/fragment)” value (ADK Adenosine kinase) was 0.8. For the same molecule, the “R value (DMSO/fragment)” value [3] was 1.5 and the “R value (DMSO/fragment)” value [4] was 1.0.

In the case of `CC(C)(C)OC(=O)NCCCC(=O)Oc1ccc([N+](=O)[O-])cc1[N+](=O)[O-]` [fragment 41, 2,4-Dinitrophenyl 4-((tert-butoxycarbonyl)amino)butanoate], the “isoTOP-ABPP ratio (R) at liganded lysine Q6NUQ1_K771” value [1] is reported as 0.8, the “isoTOP-ABPP ratio (R) at liganded lysine Q7L0Y3_K325” value [2] is reported as 0.9 and the “isoTOP-ABPP ratio (R) at liganded lysine P55263_K88” value (ADK Adenosine kinase) is reported as 1.5. The “isoTOP-ABPP ratio (R) at liganded lysine Q13011_K112” value [3] was 1.0 and the “isoTOP-ABPP ratio (R) at liganded lysine Q96AB3_K178” value [4] was 1.9.

In the case of `O=C(Oc1c(F)c(F)c(F)c(F)c1F)c1ccc2ccccc2n1` [fragment 25, Pentafluorophenyl quinoline-2-carboxylate], the “isoTOP-ABPP reactivity ratio at lysine Q6NUQ1_K771” value [1] is reported as 1.4, the “isoTOP-ABPP reactivity ratio at lysine Q7L0Y3_K325” value [2] is reported as 1.1 and the “isoTOP-ABPP reactivity ratio at lysine P55263_K88” value (ADK Adenosine kinase) is reported as 0.8. For the same molecule, the “isoTOP-ABPP reactivity ratio at lysine Q13011_K112” value [3] was 2.7 and the “isoTOP-ABPP reactivity ratio at lysine Q96AB3_K178” value [4] was 1.4.

`Cn1cc(CC(=O)Oc2ccc([N+](=O)[O-])cc2[N+](=O)[O-])c2ccccc21` [fragment 32, 2,4-Dinitrophenyl 2-(1-methyl-1H-indol-3-yl)acetate] was tested, and the “isoTOP-ABPP reactivity ratio at lysine Q6NUQ1_K771” value [1] was 1.2, the “isoTOP-ABPP reactivity ratio at lysine Q7L0Y3_K325” value [2] was 1.0 and the “isoTOP-ABPP reactivity ratio at lysine P55263_K88” value (ADK Adenosine kinase) was 1.4. For the same molecule, the “isoTOP-ABPP reactivity ratio at lysine Q13011_K112” value [3] was 1.0 and the “isoTOP-ABPP reactivity ratio at lysine Q96AB3_K178” value [4] was 1.1.

In the case of `COc1cc(CCC(=O)Oc2c(F)c(F)c(F)c(F)c2F)cc(OC)c1OC` [fragment 23, Pentafluorophenyl 3-(3,4,5-trimethoxyphenyl)propanoate], the “R value (DMSO/fragment)” value [1] is reported as 1.1, the “R value (DMSO/fragment)” value [2] is reported as 1.3 and the “R value (DMSO/fragment)” value (ADK Adenosine kinase) is reported as 0.7. For the same molecule, the “R value (DMSO/fragment)” value [3] was 4.7 and the “R value (DMSO/fragment)” value [4] was 1.2.

In the case of `O=C(Oc1ccc([N+](=O)[O-])cc1[N+](=O)[O-])c1ccc(Oc2ccccc2)cc1` [fragment 39, 2,4-Dinitrophenyl 4-phenoxybenzoate], the “isoTOP-ABPP ratio (R) at liganded lysine Q6NUQ1_K771” value [1] is reported as 1.5, the “isoTOP-ABPP ratio (R) at liganded lysine Q7L0Y3_K325” value [2] is reported as 0.9 and the “isoTOP-ABPP ratio (R) at liganded lysine P55263_K88” value (ADK Adenosine kinase) is reported as 0.9. For the same molecule, the “isoTOP-ABPP ratio (R) at liganded lysine Q13011_K112” value [3] was 1.1 and the “isoTOP-ABPP ratio (R) at liganded lysine Q96AB3_K178” value [4] was 0.9.
